Measured values taken from patent publication US20240059685A1, “PIEZO1 AGONISTS FOR THE PROMOTION OF BONE FORMATION” (BIOVENTURES, LLC, priority 2019, published 2024).
Entries after “also recorded” stand apart in the source; their conditions may differ.

What was measured:
calvaria cells [1] = assay: Oxygen consumption rate and ATP production (seahorse) in wildtype and Piezo1 knockout calvaria cells; assay type: cell-based; conditions: 10 μM, 1 hour; for changes in mitochondrial oxygen consumption rate in cells lacking Piezo1 / increases in ATP production in Piezo1 knockout cells: Piezo1 knockout calvaria cells
Description: To determine whether activation of Piezo1 by Yoda1 or YW-3-170 is associated with increased mitochondrial function, we measured oxygen consumption rate and ATP production in calvaria cells treated by Yoda1 or YW-3-170. Wildtype and Piezo1 knockout calvarial cells were cultured in α-MEM medium supplemented with 10% fetal bovine serum and treated with 10 μM Yoda1 or YW-3-170 for 1 hour. Oxygen consumption rate and ATP production were measured using seahorse. […] Importantly, these increases were diminished in Piezo1 knockout cells.

Piezo1 = molecular target: T1, Piezo1 (Mus musculus, UniProt E2JF22); assay: Intracellular calcium concentration (Fluo-8) in control or Piezo1 knock-down MLO-Y4 cells; assay type: cell-based, murine; conditions: for calcium influx / increase of intracellular calcium in Piezo1 knock-down cells: Piezo1 knock-down (sh-Piezo1) MLO-Y4 cells
T1 construct: To identify Piezo1 stimulators, we treated MLO-Y4 cells with compounds; endogenous in cells; host or cells: MLO-Y4 (murine osteocyte-like cell line); control sh-Luc cells, with sh-Piezo1 knock-down cells as the specificity control
Description: Calcium concentration measurement. For intracellular calcium concentration measurement under fluid flow condition, 1×10^5 MLO-Y4 cells were seeded in a μ-Slide I Luer (0.4 mm) fluid chamber slide (MIDI, Germany) overnight. One hour before initiating fluid flow, the culture medium was removed and 100 μl Hank's Buffer with Hepes (HHBS) containing 4μM Fluo-8 (Abcam, Cambridge, MA) was added to the culture, as described by the manufacturer. The cells were then cultured at 37° C. for 30 minutes. After additional incubation at room temperature for 30 minutes, the chamber slide was placed under a confocal microscope in order to record the intensity of fluorescence of MLO-Y4 cells. Fluorescence was recorded for 3 minutes before starting fluid flow using HHBS and then recorded for another 10 minutes. The increase of intracellular concentration was calculated by subtracting the initial mean fluorescence. For measuring intracellular calcium concentration in cells with Yoda1 treatment, we cultured 4,000 MLO-Y4 cells per well in a 96-well-plate. We preloaded the cells with Fluo-8 as described by the manufacturer and read the intensity of the fluorescence using a Victor X3 multi-label plate reader (Perkin Elmer, Waltham, MA) immediately after the treatment. We measured the fluorescence for 5 minutes at an interval of 20 seconds. The percentage of increase in intracellular calcium concentration was calculated as (Fx-F0)/F0.
To identify Piezo1 stimulators, we treated MLO-Y4 cells with compounds Yoda1, YW-3-159, W-3-163, W-3-168-1, W-3-168-2, W-3-170, W-3-173-1, W-3-173-2, and YW-3-174. Gene expression of Wnt1, Ptgs2, and Tnfrsf11b was measured to determine the activation of Piezo1. In addition, intracellular calcium concentration was measured to determine the activity of Piezo1 channel. […] Yoda1 was used as a positive control in all experiments.

MLO-Y4 cells = assay: ATP production in MLO-Y4 cells; assay type: cell-based, murine; conditions: 30 minutes, different doses
calvaria cells [2] = assay: Mitochondria staining (MitoBright dye) in wildtype and Piezo1 knockout calvaria cells; assay type: cell-based; conditions: 10 μM, 24 hours; for increases in mitochondria staining in Piezo1 knockout cells: Piezo1 knockout calvaria cells; for mitochondria staining: wildtype calvaria cells
Description: Next, we determined whether Yoda1 or YW-3-170 increase mitochondria number in primary calvaria cells. Wildtype and Piezo1 knockout calvarial cells were treated with 10 μM Yoda1 or YW-3-170 for 24 hours and then were stained for Mitochondria using MitoBright dye. […] However, these increases were blunted in Piezo1 knockout cells. […] The fluorescence intensity was quantified using the ImageJ software.

T1 sequence (E2JF22 whole entry): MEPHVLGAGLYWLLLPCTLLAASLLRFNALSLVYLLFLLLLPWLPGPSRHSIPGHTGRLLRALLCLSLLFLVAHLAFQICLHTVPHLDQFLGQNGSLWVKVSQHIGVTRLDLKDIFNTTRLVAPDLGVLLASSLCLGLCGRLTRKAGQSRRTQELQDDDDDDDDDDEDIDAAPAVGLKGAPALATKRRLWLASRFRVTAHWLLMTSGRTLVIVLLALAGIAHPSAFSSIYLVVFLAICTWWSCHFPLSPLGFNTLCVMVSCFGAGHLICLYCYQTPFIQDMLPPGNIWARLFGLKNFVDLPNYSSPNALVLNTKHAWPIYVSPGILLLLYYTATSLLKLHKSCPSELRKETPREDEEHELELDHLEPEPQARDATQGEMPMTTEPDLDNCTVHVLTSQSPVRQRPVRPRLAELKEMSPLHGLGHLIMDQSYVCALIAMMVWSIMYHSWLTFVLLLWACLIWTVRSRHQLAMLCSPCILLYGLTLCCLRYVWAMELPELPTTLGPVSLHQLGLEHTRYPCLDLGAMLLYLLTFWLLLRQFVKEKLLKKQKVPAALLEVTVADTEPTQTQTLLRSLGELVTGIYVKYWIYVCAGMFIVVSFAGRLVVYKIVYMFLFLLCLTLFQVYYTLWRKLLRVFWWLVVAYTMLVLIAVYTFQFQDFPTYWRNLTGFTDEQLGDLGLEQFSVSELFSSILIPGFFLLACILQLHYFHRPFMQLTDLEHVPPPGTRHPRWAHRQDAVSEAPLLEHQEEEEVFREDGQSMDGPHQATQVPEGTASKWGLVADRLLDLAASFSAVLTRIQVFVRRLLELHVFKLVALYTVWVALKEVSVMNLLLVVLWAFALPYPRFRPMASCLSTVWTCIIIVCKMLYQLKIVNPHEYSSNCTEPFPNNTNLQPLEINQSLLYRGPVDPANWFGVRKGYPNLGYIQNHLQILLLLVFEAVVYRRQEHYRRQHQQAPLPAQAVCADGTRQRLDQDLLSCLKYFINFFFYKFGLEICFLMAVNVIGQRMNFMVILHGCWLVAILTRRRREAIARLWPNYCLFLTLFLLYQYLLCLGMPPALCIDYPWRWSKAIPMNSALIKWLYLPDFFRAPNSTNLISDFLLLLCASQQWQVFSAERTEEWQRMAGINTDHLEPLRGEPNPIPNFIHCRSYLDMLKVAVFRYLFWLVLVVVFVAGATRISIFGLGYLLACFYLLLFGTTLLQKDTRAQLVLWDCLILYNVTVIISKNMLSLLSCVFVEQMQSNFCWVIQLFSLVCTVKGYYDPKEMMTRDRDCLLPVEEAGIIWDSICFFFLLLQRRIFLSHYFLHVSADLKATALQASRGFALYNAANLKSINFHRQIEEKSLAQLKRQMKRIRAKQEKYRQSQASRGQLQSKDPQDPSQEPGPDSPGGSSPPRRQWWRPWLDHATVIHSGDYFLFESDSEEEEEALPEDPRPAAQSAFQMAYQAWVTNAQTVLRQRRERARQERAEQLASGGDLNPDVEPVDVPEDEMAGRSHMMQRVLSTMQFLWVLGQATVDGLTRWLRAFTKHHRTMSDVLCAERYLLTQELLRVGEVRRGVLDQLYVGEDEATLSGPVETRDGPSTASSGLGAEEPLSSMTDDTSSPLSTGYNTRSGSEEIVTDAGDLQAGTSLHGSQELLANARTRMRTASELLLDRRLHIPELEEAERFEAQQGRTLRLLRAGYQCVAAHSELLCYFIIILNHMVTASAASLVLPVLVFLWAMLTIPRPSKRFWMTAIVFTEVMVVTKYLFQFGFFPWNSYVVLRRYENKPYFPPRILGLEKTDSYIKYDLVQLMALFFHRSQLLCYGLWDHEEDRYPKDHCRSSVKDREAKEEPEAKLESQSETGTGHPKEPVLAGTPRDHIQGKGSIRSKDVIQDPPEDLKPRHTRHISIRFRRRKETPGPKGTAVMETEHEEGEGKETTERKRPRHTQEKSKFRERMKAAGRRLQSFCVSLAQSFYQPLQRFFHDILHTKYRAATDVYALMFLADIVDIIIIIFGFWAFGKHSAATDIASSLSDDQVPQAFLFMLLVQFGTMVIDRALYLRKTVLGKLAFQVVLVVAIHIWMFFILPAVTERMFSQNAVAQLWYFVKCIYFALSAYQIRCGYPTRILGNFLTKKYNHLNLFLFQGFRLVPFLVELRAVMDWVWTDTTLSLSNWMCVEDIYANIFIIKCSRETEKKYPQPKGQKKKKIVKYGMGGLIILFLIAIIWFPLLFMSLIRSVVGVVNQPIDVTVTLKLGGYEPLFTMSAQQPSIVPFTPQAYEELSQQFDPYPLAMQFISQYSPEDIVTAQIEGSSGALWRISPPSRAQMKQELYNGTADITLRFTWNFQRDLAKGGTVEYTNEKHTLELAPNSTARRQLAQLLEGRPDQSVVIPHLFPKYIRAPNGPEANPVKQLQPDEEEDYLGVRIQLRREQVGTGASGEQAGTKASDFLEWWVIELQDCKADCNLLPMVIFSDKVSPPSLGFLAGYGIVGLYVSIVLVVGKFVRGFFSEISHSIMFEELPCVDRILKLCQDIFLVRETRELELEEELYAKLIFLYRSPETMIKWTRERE

Row | SMILES | changes in mitochondrial oxygen consumption rate in cells lacking Piezo1 (calvaria cells [1]) | increases in ATP production in Piezo1 knockout cells (calvaria cells [1]) | ATP production (calvaria cells [1]; wildtype calvaria cells) | ATP production compared with Yoda1 (calvaria cells [1]; wildtype calvaria cells) | mitochondrial oxygen consumption rate at basal level as well as stimulated level (calvaria cells [1]; wildtype calvaria cells) | mitochondrial oxygen consumption rate at basal level as well as stimulated level (calvaria cells [1]; wildtype calvaria cells, listed as 170) | calcium influx compared with Yoda1 (Piezo1; MLO-Y4 cells, 10 μM) | intracellular calcium concentration compared with Yoda1 (Piezo1; MLO-Y4 cells, at 2 μM, 5 μM, and 10 μM) | intracellular calcium concentration, dose dependence (Piezo1; MLO-Y4 cells, different doses) | calcium influx / increase of intracellular calcium in Piezo1 knock-down cells (Piezo1; 10 μM) | ATP production (MLO-Y4 cells) | increases in mitochondria staining in Piezo1 knockout cells (calvaria cells [2]; listed as 170) | increases in mitochondria staining in Piezo1 knockout cells (calvaria cells [2]; listed as compound I) | stimulation of mitochondria staining compared with Yoda1 (calvaria cells [2]; calvaria cells) | mitochondria staining (calvaria cells [2]; listed as 170) | mitochondria staining (calvaria cells [2]; listed as compound I) | intracellular calcium concentration (Piezo1; MLO-Y4 cells, 10 μM, vs DMSO) | increases in mitochondria staining in Piezo1 knockout cells (calvaria cells [2]) | mitochondria staining (calvaria cells [2])
1 | Fc1ccc(Cl)c(CSc2nnc(-c3cnccn3)s2)c1Cl [YW-3-170] | significantly blunted | diminished | increase | more ATP production than Yoda1 | increased | increase | much more calcium influx than Yoda1 | higher intracellular calcium concentration than Yoda1 | dose-dependently | completely blocked; also recorded: loss of their ability to stimulate calcium influx | increased ATP production in MLO-Y4 cells in a dose-dependent manner | requires Piezo1 | blunted | more potent stimulation of mitochondria staining than Yoda1 | increase | increased | – | – | –
2 | Clc1cccc(Cl)c1CSc1nnc(-c2cnccn2)s1 [Yoda1] | significantly blunted | diminished | stimulated; also recorded: increase | – | increase | – | – | – | – | completely prevented; also recorded: completely blocked | increased ATP production in MLO-Y4 cells in a dose-dependent manner | – | – | – | – | – | increased | blunted; also recorded: requires Piezo1 | increase
